Read-outs that look alike come from different tables or passages of the source.
What was measured:
[1] = molecular target: T1, endogenous CETP from serum (Homo sapiens, UniProt P11597); experiment: RTA assay in 95% human serum (CETP-catalyzed CE and TG transfer, endogenous CETP from serum); assay type: biochemical
T1 construct: yielding a concentration of approximately 15 nM endogenous CETP in the assay; from tissue; host or cells: human serum
T1 sequence (P11597 18-493): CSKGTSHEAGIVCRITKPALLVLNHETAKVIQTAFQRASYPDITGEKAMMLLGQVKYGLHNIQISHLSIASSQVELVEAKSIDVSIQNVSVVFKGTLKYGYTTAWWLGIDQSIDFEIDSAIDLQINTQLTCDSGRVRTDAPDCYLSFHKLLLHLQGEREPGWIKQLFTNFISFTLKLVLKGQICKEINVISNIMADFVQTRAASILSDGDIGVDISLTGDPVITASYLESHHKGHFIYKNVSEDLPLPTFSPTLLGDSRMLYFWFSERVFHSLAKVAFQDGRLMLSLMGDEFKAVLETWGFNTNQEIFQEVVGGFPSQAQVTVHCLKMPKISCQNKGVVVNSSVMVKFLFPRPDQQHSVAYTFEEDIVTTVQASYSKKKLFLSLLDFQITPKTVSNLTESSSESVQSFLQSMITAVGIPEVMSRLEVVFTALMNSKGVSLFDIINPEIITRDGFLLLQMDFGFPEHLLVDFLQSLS
Method: In Vitro Radioactive Assays of CETP-Catalyzed CE and TG Transfer (RTA Assay)
Reagents and sources are: [3H] cholesteryl oleate (GE #TRK.886), [3H] Triolein (Perkin-Elmer NET-431), Butylated hydroxyl toluene (Aldrich, #D4740-4), DOPC (Sigma, # P6354), Sodium Bromide (Fisher scientific #S255-500), PEG 8000 (Fisher, #BP233-1), and human HDL (Intracel Corp #RP-036).
An in vitro assay for determining IC50's to identify compounds that inhibit CETP transfer activity is performed based on a modification of a published method (Morton and Zilversmit, (1981) A plasma inhibitor of triglyceride and cholesteryl ester transfer activities, J. Biol. Chem. 256(23), 11992-11995). The ability of inhibitors to alter CETP activity is performed using two different assays: one using recombinant CETP and one using an endogenous plasma source of CETP. Both assays measure the transfer of [3H] cholesteryl oleate or [3H] triolein from exogenous LDL to HDL.
Radiolabeled donor particles are generated by first combining 100 μl of 200 μM butylated hydroxyl toluene in CHCl3, 216 μL of 21.57 mM DOPC in EtOH, and either 500 μCi [3H]-triolein (Perkin Elmer #NET-431) or 500 μCi [3H]-cholesteryl oleate (GE #TRK886) in a glass tube. Reagents are mixed, dried under nitrogen, and then resuspended in 2 mL of 50 mM Tris, 27 μM EDTA at pH 7.4. After a brief vortex, the solution is sonicated until clear and mixed with 20 mL of fresh human serum. The mixture is incubated overnight at 37° C. The [3H] labeled LDL substrate is separated at 1.063 g/ml density by sequential ultracentrifugal flotation in NaBr according to the method of Havel, Eder, et al., 1955, and Chapman, Goldstein, et al., 1981. Once isolated the particles are dialyzed 3× in CETP buffer (50 mM Tris, pH 7.4, 100 mM NaCl, 1 mM EDTA). Human HDL is purchased from Intracel and used as the acceptor particles.
Transfer assays are performed in a 96-well v-bottom polypropylene plate. For the RTA using recombinant CETP (2% RTA), an assay cocktail is prepared with the final concentrations 128 μg/mL HDL, 20 nM rCETP, 2% human serum, and 1×CETP buffer. 1 μL of each test compound diluted in DMSO is added to 47 μL of assay cocktail per well and incubated at 37° C. for 1 hour. To initiate the transfer reaction, 2 μL radiolabeled LDL is added. After an additional 60 min of incubation at 37° C., the transfer action is terminated by precipitation of LDL with an equal volume of 20% W/V PEG 8000. The plates are centrifuged at 2000 rpm for 30 minutes at 4° C. A 40 μL aliquot of the HDL-containing supernatant is transferred to a Packard Optiplate™ with 200 μL of MicroScint™ 20. After mixing, plates are counted by liquid scintillation. Counts present in the supernatant for blanks (wells containing only HDL acceptor, CETP buffer and DMSO) are subtracted from those containing test compounds and used to correct for non-specific transfer.
For the transfer assay using endogenous CETP from serum (95% RTA), the same procedure is used except that human serum is added such that a final concentration of serum of 95% of the total assay volume is achieved, yielding a concentration of approximately 15 nM endogenous CETP in the assay. This is then combined with HDL and CETP buffer and the reaction proceeds as above and is terminated as described.
Comparison of the counts of samples with inhibitors to an uninhibited (DMSO only) positive control yield a percent inhibition. A plot of percent inhibition vs. log of inhibitor concentration, fit to a Sigmoidal 4 parameter equation is used to calculate IC50.
Starting materials are commercially available or are made using known procedures or as shown below. The examples may be synthesized using the general schemes provided below. Synthetic intermediates for making the compounds are made as described below. The data reported for the examples below were generally obtained using the RTA assay in 95% human serum. […]

[2] = patients on anacetrapib plus baseline statin compared with patients treated with just a statin; cited from earlier work

| Structure (SMILES) | IC50 ([1]; read-out: IC50) | other results |
| --- | --- | --- |
| COc1ccc(-c2ccc(C(=O)O)cc2C)cc1-c1ccc(C(F)(F)F)cc1CN1C(=O)S[C@H](c2cc(C(F)(F)F)cc(C(F)(F)F)c2)[C@@H]1C [Example 1, 2″-(((4S,5R)-5-(3,5-bis(trifluoromethyl)phenyl)-4-methyl-2-oxothiazolidin-3-yl)methyl)-4′-methoxy-2-methyl-4″-(trifluoromethyl)-[1,1′:3′,1″-terphenyl]-4-carboxylic acid] |  | IC50 ([1]; read-out: RTA (95% HS)): 62 nM |
| COc1ccc(-c2ccc(C(=O)O)cc2C)cc1-c1ccc(C(F)(F)F)nc1CN1C(=O)S[C@H](c2cc(C(F)(F)F)cc(C(F)(F)F)c2)[C@@H]1C [Example 2, 3′-[2-({(4S,5R)-5-[3,5-bis(trifluoromethyl)phenyl]-4-methyl-2-oxo-1,3-thiazolidin-3-yl}methyl)-6-(trifluoromethyl)pyridin-3-yl]-4′-methoxy-2-methylbiphenyl-4-carboxylic acid] | 39 nM |  |
| COc1ncc(-c2ccc(C(=O)O)cc2C)cc1-c1ccc(C(F)(F)F)nc1CN1C(=O)S[C@H](c2cc(C(F)(F)F)cc(C(F)(F)F)c2)[C@@H]1C [Example 3, 4-[2′-({(4S,5R)-5-[3,5-bis(trifluoromethyl)phenyl]-4-methyl-2-oxo 1,3-thiazolidin-3-yl}methyl)-2-methoxy-6′-(trifluoromethyl)-3,3′-bipyridin-5-yl]-3-methylbenzoic acid] | 106 nM |  |
| COc1ccc(CCC(=O)O)cc1-c1ccc(C(F)(F)F)nc1CN1C(=O)S[C@H](c2cc(C(F)(F)F)cc(C(F)(F)F)c2)[C@@H]1C [Example 4, 3-{3-[2-({(4S,5R)-5-[3,5-bis(trifluoromethyl)phenyl]-4-methyl-2-oxo-1,3-thiazolidin-3-yl}methyl)-6-(trifluoromethyl)pyridin-3-yl]-4-methoxyphenyl} propanoic acid] | 300 nM |  |
| COc1ncc(-c2c(C)cc(C(=O)O)cc2C)cc1-c1ccc(C(F)(F)F)nc1CN1C(=O)S[C@H](c2cc(C(F)(F)F)cc(C(F)(F)F)c2)[C@@H]1C [Example 5, 4-[2′-({(4S,5R)-5-[3,5-bis(trifluoromethyl)phenyl]-4-methyl-2-oxo-1,3-thiazolidin-3-yl}methyl)-2-methoxy-6′-(trifluoromethyl)-3,3′-bipyridin-5-yl]-3,5-dimethylbenzoic acid] | 25 nM |  |
| COc1ccc([C@H]2CC[C@H](C(=O)O)CC2)cc1-c1ccc(C(F)(F)F)nc1CN1C(=O)S[C@H](c2cc(C(F)(F)F)cc(C(F)(F)F)c2)[C@@H]1C [Example 6, trans-4-{3-[2-({(4S,5R)-5-[3,5-bis(trifluoromethyl)phenyl]-4-methyl-2-oxo-1,3-thiazolidin-3-yl}methyl)-6-(trifluoromethyl)pyridin-3-yl]-4-methoxyphenyl} cyclohexanecarboxylic acid] | 257 nM |  |
| COc1ncc(-c2ccc(C(=O)O)cc2C)cc1-c1ccc(C(F)(F)F)cc1CN1C(=O)S[C@H](c2cc(C(F)(F)F)cc(C(F)(F)F)c2)[C@@H]1C [Example 7, 4-{5-[2-({(4S,5R)-5-[3,5-bis(trifluoromethyl)phenyl]-4-methyl-2-oxo-1,3-thiazolidin-3-yl}methyl)-4-(trifluoromethyl)phenyl]-6-methoxypyridin-3-yl}-3-methylbenzoic acid] | 117 nM |  |
| COc1cc(F)c(C(C)C)cc1-c1ccc(C(F)(F)F)cc1CN1C(=O)O[C@H](c2cc(C(F)(F)F)cc(C(F)(F)F)c2)[C@@H]1C [anacetrapib] |  | decrease of LDL-C [2]: 40%; increase of HDL-C [2]: 138% |

Reference: patent publication US9376408B2, “Therapeutic thiazolidinone compounds” (Merck Sharp & Dohme Corp., priority 2012, dated 2016)
